According to PMC5571044 (Scientific Reports, 2017):

Columns and labels:
[1] = biological target: PB2long (Influenza A virus (A/Udorn/307/1972(H3N2)), UniProt Q67296); experiment: biochemical; assay type: binding, influenza A/Udorn/307/1972(H3N2)
[2] = biological target: PB2cap (Influenza A virus (A/Udorn/307/1972(H3N2)), UniProt Q67296); experiment: biochemical; assay type: binding, influenza A/Udorn/307/1972(H3N2)
[3] = biological target: influenza A PB2long (FluA H3N2 PB2 241–741) (Influenza A virus (A/Udorn/307/1972(H3N2)), UniProt Q67296); experiment: biochemical; assay type: binding, influenza A/Udorn/307/1972(H3N2)
[4] = test system: A/H3N2/Udorn/72 PB2, PB1, PA, NP replicon (WT); experiment: cells; assay type: cell-based, influenza A/H3N2/Udorn/72 in 293 T cells; details: Influenza A virus, H3N2, HEK-293T, 48 h, read-out: Replicon EC50, WT

Sequence of PB2long (Influenza A virus (A/Udorn/307/1972(H3N2)), UniProt Q67296) (Q67296 241-741 limits assumed): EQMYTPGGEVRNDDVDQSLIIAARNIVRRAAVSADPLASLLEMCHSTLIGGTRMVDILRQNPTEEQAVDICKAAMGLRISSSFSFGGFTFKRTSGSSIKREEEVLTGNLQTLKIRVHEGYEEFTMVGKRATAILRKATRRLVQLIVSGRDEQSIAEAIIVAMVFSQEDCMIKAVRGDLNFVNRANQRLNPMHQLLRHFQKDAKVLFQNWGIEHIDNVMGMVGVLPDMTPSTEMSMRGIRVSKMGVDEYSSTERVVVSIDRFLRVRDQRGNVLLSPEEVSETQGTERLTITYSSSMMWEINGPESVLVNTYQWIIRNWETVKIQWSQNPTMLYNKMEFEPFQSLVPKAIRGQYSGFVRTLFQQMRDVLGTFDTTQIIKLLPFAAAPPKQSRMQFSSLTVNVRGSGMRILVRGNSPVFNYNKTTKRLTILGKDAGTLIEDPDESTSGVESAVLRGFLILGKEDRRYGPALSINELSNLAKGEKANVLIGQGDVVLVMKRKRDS
Sequence of PB2cap (Influenza A virus (A/Udorn/307/1972(H3N2)), UniProt Q67296) (Q67296 309-483 limits assumed): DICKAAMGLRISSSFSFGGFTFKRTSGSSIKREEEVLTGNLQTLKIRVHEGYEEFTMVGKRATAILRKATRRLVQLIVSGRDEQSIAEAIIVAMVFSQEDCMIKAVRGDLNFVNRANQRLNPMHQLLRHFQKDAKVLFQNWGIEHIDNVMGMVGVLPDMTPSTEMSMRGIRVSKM
Sequence of influenza A PB2long (FluA H3N2 PB2 241–741) (Influenza A virus (A/Udorn/307/1972(H3N2)), UniProt Q67296) (Q67296 241-741 limits assumed): as the sequence (Q67296 241-741 limits assumed) above

O=C(O)[C@H]1C2CCC(CC2)[C@@H]1Nc1nc(-c2c[nH]c3ncc(F)cc23)ncc1F [VX-787]
Kd [1]: 0.0067 nM | kon ([1]; read-out: ka (association rate), PB2long): 2.9e+06 M⁻¹ s⁻¹ | koff ([1]; read-out: kd (dissociation rate), PB2long): 2e-05 s⁻¹ | Kd [2]: 78 nM | kon ([2]; read-out: ka (association rate), PB2cap): 59000 M⁻¹ s⁻¹ | koff ([2]; read-out: kd (dissociation rate), PB2cap): 0.0046 s⁻¹ | Kd [3]: 0.67 nM | EC50 [4]: 3.5 nM
